# From patent US11857535B2, “Methods of treating mutant lymphomas” (Kymera Therapeutics, Inc., priority 2020, dated 2024)
# Key:
# OCI-Ly10 = experiment: CTG cell viability assay - OCI-Ly10; format: cell-based; conditions: Homo sapiens, 96 h; OCI-Ly10, 4 days
# Protocol: Compound-mediated viability effect on OCI-Ly10 or SUDHL-2 was quantitatively determined using the CellTiter-Glo® Luminescent Cell Viability Assay kit from Promega (Catalog number G7570) following manufacturer's recommended procedures. Briefly, OCI-Ly10 or SUDHL-2 cells were seeded into 384 well plates (Grenier Bio-One, Catalog number 781080) with a density of 10,000 cells per well. Compounds were then added to the assay plate with final top concentration of 10 μM and 1:3 dilution series with total of 9 doses. The final DMSO concentration was normalized to 0.2%. The assay plates were incubated at 37° C. for 4 days under 5% CO2. Then the assay plate was equilibrated at room temperature for 10 minutes. To determine cell viability, 30 μL CellTiter Glo reagent was added to each well and the assay plate was centrifuged at 1000 rpm for 30 second, incubated at room temperature for 10 min, and analyzed by detecting the luminescence using a multimode plate reader (EnVision 2105, PerkinElmer). The data was then analyzed by software Prism 7.0 from GraphPad and the dose response curves were fit using a three-parameter logistic equation to calculate IC50.
# IRAK4 = biological target: T1, IRAK4 (Homo sapiens, UniProt Q9NWZ3); experiment: IRAK4 MSD degradation in OCI-Ly10; format: cell-based; conditions: FIG. 1
# T1 construct: endogenous in cells; host or cells: OCI-Ly10
# T1 sequence (Q9NWZ3 1-460): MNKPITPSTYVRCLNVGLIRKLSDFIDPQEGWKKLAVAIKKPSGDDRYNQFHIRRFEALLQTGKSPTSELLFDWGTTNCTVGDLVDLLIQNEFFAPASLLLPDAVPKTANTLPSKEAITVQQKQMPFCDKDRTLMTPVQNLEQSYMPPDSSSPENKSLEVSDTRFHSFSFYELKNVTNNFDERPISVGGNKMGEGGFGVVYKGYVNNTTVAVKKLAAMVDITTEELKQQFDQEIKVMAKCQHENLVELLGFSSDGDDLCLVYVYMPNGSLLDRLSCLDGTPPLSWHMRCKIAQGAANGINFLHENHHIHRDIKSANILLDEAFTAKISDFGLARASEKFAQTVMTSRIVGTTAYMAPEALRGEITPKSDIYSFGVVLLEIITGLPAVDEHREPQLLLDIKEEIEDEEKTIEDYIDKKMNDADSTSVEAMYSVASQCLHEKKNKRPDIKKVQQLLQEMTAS
# Protocol: Degradation of IRAK4 in OCI-Ly10 was quantitatively measured using Meso Scale Discovery technology. OCI-Ly10 cells were seeded in 96-well plates (Corning 3799) with a density of 300,000 cells per well in 100 μL fresh media. Compounds were then added to the assay plates with a final top concentration of 1 to 10 μM in a 1:3 dilution series with total of 8 doses. The assay plates were then incubated for 4 to 24 hours at 37° C. under 5% CO2. The assay plates were then centrifuged for 5 minutes and the cell pellets were treated with 100 μL/well RIPA lysis buffer (Boston BioProducts BP-115D) with proteinase inhibitors. To prepare MSD assay plates (Meso Scale Discovery Catalog number L15XA-3), the plates were coated with 2 μg/mL capture antibody (mouse Anti-IRAK4 antibody [2H9], ab119942) in PBS, at 40 μL/well. The plates were then incubated overnight at 4° C., washed 3 times with 150 μL/well TBST buffer (Cell Signaling Technology, Catalog number 9997S) and blocked with 150 μL/well blocking buffer (Meso Scale Discovery Catalog number R93BA-4). Cell lysates were then added to MSD assay plates and the plates were incubated at room temperature for 1 hour. The plates were then washed 3 times with 150 μL/well TBST buffer and […] primary detection antibody (rabbit Anti-IRAK4 antibody [Y279], from Abcam. Catalog number ab32511, 1 μg/mL). The assay plates were then incubated at room temperature for 1 hour, washed 3 times with 150 μL/well TBST buffer and 25 μL/well secondary detection antibody, SULFO-TAG anti-rabbit antibody were added (anti rabbit antibody from Meso Scale Discovery, Catalog number R32AB-1, 1 μg/mL). The assay plates were then incubated at room temperature for 1 hour, washed 3 times with 150 μL/well TBST buffer, and 150 μL/well MSD reading buffer (Meso Scale Discovery catalog number R92TC-2) was added. The plates were then analyzed by a MSD reader (Meso Scale Discovery, Model Quick Plex SQ 120). The data was then analyzed by software Prism 7.0 from GraphPad and the dose-depended IRAK4 degradation were fit using a three-parameter logistic equation to calculate DC50.
# [1] = NHP clinical observations and body weight (tolerability); format: in vivo, Cynomolgus monkeys
# Protocol: Body weight measurement at pre-dose on Day 1, Day 4, Day 7, Day 14. Monitor clinical observation of the animal for 14 days post dose.
# Twice daily (approximately 9:30 a.m. and 4:00 p.m.), Cage-side observations for general health and appearance will be done. Animals will be given physical examination prior to study initial to confirm animals' health. Day of dosing: before and after dosing, and before and after each PK sample time point through 24 hour PK sample. Twice daily thereafter. General condition, behavior, activity, excretion, respiration or other unusual observations noted throughout the study will be recorded in the raw data. When necessary, additional clinical observations will be performed and recorded.
# All animals will be weighed on the dosing day prior to dosing to determine the dose volume to be administered, and again weekly thereafter.
# All animals will be weighed on the dosing day prior to dosing to determine the dose volume to be administered, and again weekly after.
# [2] = Solubility in oral dosing vehicle; format: physicochemical; conditions: 10% HP-β-CD vehicle (oral dosing vehicle), aqueous with cosolvent or surfactant or cyclodextrin; 10% HP-β-CD in water at pH 3.5 (w/v), 25 C; read-out: measured solubility
# Protocol: Formulation: 10% HP-β-CD in water at pH 3.5 (w/v) in water at pH 3.5 (w/v) • Prepare the 10% HP-β-CD vehicle on a (w/v) basis • Add compound with stirring. • Heat to ˜50 C for 10 minutes. Can also sonicate. • Adjust pH to 3.5. • Heat for another 10-20 minutes at ˜50 C. • Check and adjust the pH as needed. • Expect solution as the measured solubility was 10 mg/mL at 25 C.
smiles,measurement,setting,value
"CC(C)(O)c1cc2nc([C@H]3CC[C@H](CN4CC5(CC(CCNc6cccc7c6C(=O)N(C6CCC(=O)NC6=O)C7=O)C5)C4)CC3)sc2cc1NC(=O)c1cccc(C(F)(F)F)n1 (stereo partly shown) [Compound A, N-(2-((1r,4r)-4-((6-(2-((2-(2,6-dioxopiperidin-3-yl)-1,3-dioxoisoindolin-4-yl)amino)ethyl)-2-azaspiro[3.3]heptan-2-yl)methyl)cyclohexyl)-5-(2-hydroxypropan-2-yl)benzo[d]thiazol-6-yl)-6-(trifluoromethyl)picolinamide]",IC50,OCI-Ly10,< 50 nM
same,IRAK4 degradation associated with CTG IC90,IRAK4,approximately 70%
same,GI events,"[1]; IV, exposures up to 4.4X MED",No observed GI events
same,Hematuria,"[1]; NHP, IV",Not observed in NHP: slower
same,Clinical Observations,"[1]; NHP, IV 5 mg/kg, D1, 2",None
same,Clinical Observations,"[1]; NHP, IV 10 mg/kg, D1",None
same,Clinical Observations,"[1]; NHP, IV 10 mg/kg, D1, 2",None
same,Clinical Observations,"[1]; NHP, IV 20 mg/kg, D1",None
same,Clinical Observations,"[1]; NHP, PO 10 mg/kg, D1, D4",Diarrhea
same,Clinical Observations,"[1]; NHP, PO 25 mg/kg, D1, D2","Diarrhea, Emesis"
same,Clinical Observations,"[1]; NHP, PO 25 mg/kg, D1, D4","Diarrhea, Emesis"
same,Clinical Observations,"[1]; NHP, PO 50 mg/kg, D1",Diarrhea
same,Clinical Observations,"[1]; NHP, PO 50 mg/kg, D1, D4","Diarrhea, Emesis"
same,Clinical Observations,"[1]; NHP, PO 100 mg/kg, D1","Diarrhea, Emesis"
same,GI events,"[1]; PO, observed in all TA PO dose groups, likely tolerable","GI events (e.g., diarrhea and emesis)"
same,solubility,[2],10000 µg/mL
